We go through 33 molecules from patent publication US20190367516A1 (Bayer Pharma Aktiengesellschaft, priority 2015, published 2019).

This test addresses T1, human M2 receptor (Homo sapiens, UniProt P08172).
T1 sequence (P08172 1-466): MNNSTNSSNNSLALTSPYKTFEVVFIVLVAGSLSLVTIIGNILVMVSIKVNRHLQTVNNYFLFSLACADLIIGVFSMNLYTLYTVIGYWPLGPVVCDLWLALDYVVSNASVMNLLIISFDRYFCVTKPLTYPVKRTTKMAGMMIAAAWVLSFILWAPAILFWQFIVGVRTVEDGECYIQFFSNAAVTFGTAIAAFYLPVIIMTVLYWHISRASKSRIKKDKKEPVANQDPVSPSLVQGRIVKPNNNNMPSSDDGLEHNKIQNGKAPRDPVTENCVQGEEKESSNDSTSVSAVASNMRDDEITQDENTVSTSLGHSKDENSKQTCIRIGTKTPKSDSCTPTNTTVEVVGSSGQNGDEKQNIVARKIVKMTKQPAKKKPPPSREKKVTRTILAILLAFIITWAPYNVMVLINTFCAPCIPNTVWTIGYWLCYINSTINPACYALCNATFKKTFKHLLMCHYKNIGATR
To be noted: for Emax: read-out: Efficiency, boosting of the acetylcholine effect at EC20 acetylcholine concentration; for Efficiency: boosting of the acetylcholine effect at EC20 acetylcholine concentration.

[1] abbreviates: Receptor activity EC50, M2-GIRK1/4 activation test, acetylcholine at EC20, allosteric potency, in some cases mean values from two or more determinations.
The mark [2] stands for this setting: Receptor activity EC50, allosteric potency at EC20 acetylcholine, M2-GIRK1/4 reporter cells, in some cases mean of two or more determinations.

SMILES strings stand for the structures. Like-named read-outs stand apart in the source and are kept apart here.

One may read the EC50 as the concentration that produces a half-maximal response. A lower EC50 goes with a more potent agent. Under setting [1], `O=C(N[C@H](c1ccccc1Cl)C(F)(F)F)c1cn(-c2ccc(F)cc2F)c2nc(N3CCCC(O)C3=O)ccc2c1=O` (single isomer, unassigned) [Example 210] displayed an EC50 of 285 nM.
Consider `CC(NC(=O)c1cn(-c2ccc(F)cc2F)c2nc(N3C[C@@H](O)CC3=O)ccc2c1=O)c1c(F)cccc1F` (single isomer, unassigned) [Example 215], for which the EC50 under setting [1] amounted to 178 nM.
As to `CC[C@@H](NC(=O)c1cn(-c2ccc(F)cc2F)c2nc(N3CC4CNC(=O)C4C3)ccc2c1=O)C(F)(F)F` (single isomer, unassigned) [Example 222], under setting [1], a half-maximal effect (EC50) was put at 200 nM. The EC50 values of the last two molecules are within 1.5-fold of each other.
Under setting [1], `O=C(NC(c1c(F)cccc1F)C(F)(F)F)c1cn(-c2ccc(F)cc2F)c2nc(N3CCCC(O)C3=O)ccc2c1=O` (single isomer, unassigned) [Example 248, 1-(2,4-Difluorophenyl)-N-[1-(2,6-difluorophenyl)-2,2,2-trifluoroethyl]-7-[3-hydroxy-2-oxopiperidin-1-yl]-4-oxo-1,4-dihydro-1,8-naphthyridine-3-carboxamide] had a 50% effective concentration (EC50) of 330 nM.
Under setting [1], `O=C(NC(c1c(F)cccc1F)C(F)(F)F)c1cn(-c2ccc(F)cc2F)c2nc(N3CCCC(O)C3=O)ccc2c1=O` (single isomer, unassigned) [Example 249, 1-(2,4-Difluorophenyl)-N-[1-(2,6-difluorophenyl)-2,2,2-trifluoroethyl]-7-[3-hydroxy-2-oxopiperidin-1-yl]-4-oxo-1,4-dihydro-1,8-naphthyridine-3-carboxamide] showed an EC50 of 505 nM. Against the preceding molecule, the EC50 is about 1.5-fold higher.
Regarding `O=C(NC(c1c(F)cccc1F)C(F)(F)F)c1cn(-c2ccc(F)cc2F)c2nc(N3CCCC(O)C3=O)ccc2c1=O` (single isomer, unassigned) [Example 251, 1-(2,4-Difluorophenyl)-N-[1-(2,6-difluorophenyl)-2,2,2-trifluoroethyl]-7-[3-hydroxy-2-oxopiperidin-1-yl]-4-oxo-1,4-dihydro-1,8-naphthyridine-3-carboxamide], the midpoint of the response under setting [1], the EC50, lay at 163 nM.
Same read-out and setting: next, `O=C(NC(c1c(F)cccc1F)C(F)(F)F)c1cn(-c2ccc(F)cc2F)c2nc(N3CCC(O)CC3=O)ccc2c1=O` (single isomer, unassigned) [Example 253, 1-(2,4-Difluorophenyl)-N-[1-(2,6-difluorophenyl)-2,2,2-trifluoroethyl]-7-[4-hydroxy-2-oxopiperidin-1-yl]-4-oxo-1,4-dihydro-1,8-naphthyridine-3-carboxamide]: 483 nM.
On the same count and under the same terms, for `O=C(NC(c1c(F)cccc1F)C(F)(F)F)c1cn(-c2ccc(F)cc2F)c2nc(N3CCC(O)CC3=O)ccc2c1=O` (single isomer, unassigned) [Example 254, 1-(2,4-Difluorophenyl)-N-[1-(2,6-difluorophenyl)-2,2,2-trifluoroethyl]-7-[4-hydroxy-2-oxopiperidin-1-yl]-4-oxo-1,4-dihydro-1,8-naphthyridine-3-carboxamide] the value was 337 nM.
On the same count and under the same terms, for `O=C(NC(c1c(F)cccc1F)C(F)(F)F)c1cn(-c2ccc(F)cc2F)c2nc(N3CCC(O)CC3=O)ccc2c1=O` (single isomer, unassigned) [Example 256, 1-(2,4-Difluorophenyl)-N-[1-(2,6-difluorophenyl)-2,2,2-trifluoroethyl]-7-[4-hydroxy-2-oxopiperidin-1-yl]-4-oxo-1,4-dihydro-1,8-naphthyridine-3-carboxamide] the value was 147 nM.
`CC[C@@H](NC(=O)c1cn(-c2ccc(F)cc2F)c2nc(N3CCOC(C(F)F)C3)ccc2c1=O)C(F)(F)F` (single isomer, unassigned) [Example 264] showed an EC50 under setting [1] of 530 nM. Compared with the last molecule, the EC50 is about 3.6-fold higher.
The same measure, in the same setting: next, `CC[C@@H](NC(=O)c1cn(-c2ccc(F)cc2F)c2nc(N3CCOC(C(F)F)C3)ccc2c1=O)C(F)(F)F` (single isomer, unassigned) [Example 265]: 23700 nM.
On to `CC[C@@H](NC(=O)c1cn(-c2ccccc2C(F)(F)F)c2nc(N3C[C@@H](O)CC3=O)ccc2c1=O)C(F)(F)F` (single isomer, unassigned) [Example 269], for which, under setting [1], a half-maximal response (EC50) required 210 nM.
With `CC[C@@H](NC(=O)c1cn(-c2ccccc2C(F)(F)F)c2nc(N3C[C@@H](O)CC3=O)ccc2c1=O)C(F)(F)F` (single isomer, unassigned) [Example 270], under setting [1], the response was half-maximal at 1600 nM (EC50).
Turning to `CC[C@@H](NC(=O)c1cn(-c2c(F)cccc2F)c2nc(N3CCC(C)(O)C3)ccc2c1=O)C(F)(F)F` (single isomer, unassigned) [Example 277], under setting [1], the EC50 was 78 nM.
The same measure, in the same setting: next, `O=C(NC(c1ccccc1Cl)C(F)(F)F)c1cn(-c2ccccc2F)c2nc(N3CCC(O)C3=O)ccc2c1=O` (single isomer, unassigned) [Example 290]: 312 nM; `O=C(NC(c1ccccc1Cl)C(F)(F)F)c1cn(-c2ccccc2F)c2nc(N3CCC(O)C3=O)ccc2c1=O` (single isomer, unassigned) [Example 291]: 673 nM.
Under setting [1], `CC[C@@H](NC(=O)c1cn(-c2c(F)cccc2F)c2nc(N3CCC(O)C3=O)ccc2c1=O)C(F)(F)F` (single isomer, unassigned) [Example 293] registered an EC50 of 73 nM.
On the same count and under the same terms, for `CC[C@@H](NC(=O)c1cn(-c2ccc(F)cc2F)c2nc(N3CC(C)CC3=O)ccc2c1=O)C(F)(F)F` (single isomer, unassigned) [Example 302] the value was 17 nM; for `CC[C@@H](NC(=O)c1cn(-c2ccc(F)cc2F)c2nc(N3CC(C)CC3=O)ccc2c1=O)C(F)(F)F` (single isomer, unassigned) [Example 303], 60 nM.
Molecule `C[C@H](NC(=O)c1cn(-c2c(F)cccc2F)c2nc(N3CC4CC4(O)C3)ccc2c1=O)C(F)(F)F` (single isomer, unassigned) [Example 312] registered an EC50 under setting [1] of 72 nM.
Same read-out and setting: for `C[C@H](NC(=O)c1cn(-c2c(F)cccc2F)c2nc(N3CC4CC4(O)C3)ccc2c1=O)C(F)(F)F` (single isomer, unassigned) [Example 313] the value was 71 nM; for `C[C@H](NC(=O)c1cn(-c2c(F)cc(F)cc2F)c2nc(N3CC4CC4(O)C3)ccc2c1=O)C(F)(F)F` (single isomer, unassigned) [Example 317], 26 nM; for `C[C@H](NC(=O)c1cn(-c2c(F)cc(F)cc2F)c2nc(N3CC4CC4(O)C3)ccc2c1=O)C(F)(F)F` (single isomer, unassigned) [Example 318], 14 nM.
Turning to `CC(C)(CC(F)(F)F)NC(=O)c1cn(-c2c(F)cc(F)cc2Cl)c2nc(N3C[C@@H](O)[C@H](O)C3)ccc2c1=O` (single isomer, unassigned) [Example 392], the EC50 under setting [1] amounted to 6 nM.
The same measure, in the same setting: for `CC(C)(CC(F)(F)F)NC(=O)c1cn(-c2c(F)cc(F)cc2Cl)c2nc(N3C[C@@H](O)[C@H](O)C3)ccc2c1=O` (single isomer, unassigned) [Example 393] the value was 125 nM.
Molecule `CCC(COC(F)(F)F)NC(=O)c1cn(-c2c(F)cc(F)cc2F)c2nc(N3C[C@@H](O)CC3=O)ccc2c1=O` (single isomer, unassigned) [Example 411] showed a half-maximal effective concentration (EC50) under setting [2] of 21 nM. In addition, the Emax (M2-GIRK1/4 reporter cells) worked out at 100%.
For `CC[C@H](NC(=O)c1cn(-c2c(F)cc(F)cc2Cl)c2nc(N3CCC(C)C3=O)ccc2c1=O)C(F)(F)F` (single isomer, unassigned) [Example 423], a half-maximal response under setting [2] (EC50) required 3150 nM. For the same molecule, the Efficiency (M2-GIRK1/4 reporter cells) came out at 53.5%.
As to `CC[C@@H](NC(=O)c1cn(-c2ccc(F)cc2F)c2nc(N3C(=O)CCC3C)ccc2c1=O)C(F)(F)F` (single isomer, unassigned) [Example 427], the concentration for a half-maximal effect (EC50) under setting [2] amounted to 19 nM. The Emax (M2-GIRK1/4 reporter cells) is 91.5%.
`CC[C@@H](NC(=O)c1cn(-c2ccc(F)cc2F)c2nc(N3C(=O)CCC3C)ccc2c1=O)C(F)(F)F` (single isomer, unassigned) [Example 428] came in with a concentration giving a half-maximal response (EC50) under setting [2] of 72 nM. The Efficiency (M2-GIRK1/4 reporter cells) is reported as 86.0%.
`CC[C@@H](NC(=O)c1cn(-c2ccc(F)cc2F)c2nc(N3CC(C)NC3=O)ccc2c1=O)C(F)(F)F` (single isomer, unassigned) [Example 433] returned an EC50 under setting [2] of 170 nM. The Efficiency (M2-GIRK1/4 reporter cells) is 100.0%.
For `O=C(NC(CC(F)(F)F)C1CC1)c1cn(-c2c(F)cc(F)cc2F)c2nc(N3C[C@@H](O)[C@H](O)C3)ccc2c1=O` (single isomer, unassigned) [Example 440] the same measures were 23 nM and 98.5%.
`CC(NC(=O)c1cn(-c2c(F)cc(F)cc2F)c2nc(N3C[C@@H](O)[C@H](O)C3)ccc2c1=O)(C1CC1)C(F)(F)F` (single isomer, unassigned) [Example 442]: under setting [2], the half-maximal effective concentration (EC50) stood at 10 nM. Under “M2-GIRK1/4 reporter cells”, the Emax came to 100%.
The like results for `CCC1CCN(c2ccc3c(=O)c(C(=O)N[C@@H](C4CC4)C(F)(F)F)cn(-c4c(F)cc(F)cc4F)c3n2)C(=O)N1` (single isomer, unassigned) [Example 447, N-[(1 S)-1-Cyclopropyl-2,2,2-trifluoroethyl]-7-[4-ethyl-2-oxotetrahydropyrimidin-1(2H)-yl]-4-oxo-1-(2,4,6-trifluorophenyl)-1,4-dihydro-1,8-naphthyridine-3-carboxamide] were, in that order, 24 nM and 93%.
